This passage reports T/C results from PubChem BioAssay AID212 (DTP/NCI, 2004).

In the assay the test system is BDF1 mice, colon carcinoma 38 sc, T/C %. Kind of assay: NCI In Vivo Anticancer Drug Screen. Data for tumor model Colon Carcinoma 38 (subcutaneous) in B6D2F1 (BDF1) mice. In outline:
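Transplantable tumor in mice; compound-treated vs vehicle-dosed controls. Measured survival or tumor size; value = T ÷ C.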

[1] abbreviates: endpoint: median tumor weight (est.), dose: 6.25 mg/kg/injection, schedule: Q07DX002 (ip), vehicle: saline with Tween-80, higher = larger tumour.
Setting [2] is: endpoint: median tumor weight (est.), dose: 12.5 mg/kg/injection, schedule: Q07DX002 (ip), vehicle: saline with Tween-80, higher = larger tumour.
Where [3] appears, read: endpoint: median tumor weight (est.), dose: 25.0 mg/kg/injection, schedule: Q07DX002 (ip), vehicle: saline with Tween-80, higher = larger tumour.
Where [4] appears, read: endpoint: median tumor weight (est.), dose: 50.0 mg/kg/injection, schedule: Q07DX002 (ip), vehicle: saline with Tween-80, higher = larger tumour.
Where [5] appears, read: endpoint: median tumor weight (est.), dose: 100.0 mg/kg/injection, schedule: Q07DX002 (ip), vehicle: saline with Tween-80, higher = larger tumour.
Setting [6] is: endpoint: median tumor weight (est.), dose: 12.5 mg/kg/injection, schedule: Q07DX002 (ip), vehicle: saline, higher = larger tumour.
Setting [7] is: endpoint: median tumor weight (est.), dose: 50.0 mg/kg/injection, schedule: Q07DX002 (ip), vehicle: saline, higher = larger tumour.
Where [8] appears, read: endpoint: median tumor weight (est.), dose: 6.25 mg/kg/injection, schedule: Q07DX002 (ip), vehicle: Klucel (hydroxypropylcellulose) (HPC), higher = larger tumour.

Values joined by “and” are separate entries in the source; they are usually repeats but may differ in a detail not shown here. Identical values can stand only once. Results filed as inconclusive are left out.

On to `CC1(C)OC2C(COC(=O)c3ccc([N+](=O)[O-])cc3)OC(NC(=O)N(CCCl)N=O)C2O1` (stereo not given), for which the T/C under setting [1] is 62 % of control; the T/C under setting [2] was 112 % of control and 123 % of control; the T/C (endpoint: median tumor weight (est.), dose: 12.5 mg/kg/injection, schedule: Q07DX003 (ip), vehicle: saline with Tween-80, higher = larger tumour) is 106 % of control; the T/C under setting [3] was 68 % of control; the T/C (endpoint: median tumor weight (est.), dose: 25.0 mg/kg/injection, schedule: Q07DX003 (ip), vehicle: saline with Tween-80, higher = larger tumour) is 88 % of control; the T/C under setting [4] was 61 % of control and 82 % of control. Further, the T/C was 68 % of control (endpoint: median tumor weight (est.), dose: 50.0 mg/kg/injection, schedule: Q07DX003 (ip), vehicle: saline with Tween-80, higher = larger tumour); 48 % of control and 67 % of control under setting [5]; 40 % of control (endpoint: median tumor weight (est.), dose: 100.0 mg/kg/injection, schedule: Q07DX003 (ip), vehicle: saline with Tween-80, higher = larger tumour); 4 % of control (endpoint: median tumor weight (est.), dose: 200.0 mg/kg/injection, schedule: Q07DX003 (ip), vehicle: saline with Tween-80, higher = larger tumour).

In the case of `C=CS(=O)(=O)c1ccccc1`, the T/C by setting is: under setting [1], 91 % of control; under setting [2], 66 % of control; under setting [6], 97 % of control; under setting [3], 174 % of control; under setting [4], 150 % of control; under setting [7], 100 % of control. The T/C under setting [5] was 109 % of control.

As to `CN(C)c1ccc(C(=C2C=CC(=[N+](C)C)C=C2)c2ccc(N(C)C)cc2)cc1` (tested in a mixture with another compound), the T/C by setting is: (endpoint: median tumor weight (est.), dose: 0.62 mg/kg/injection, schedule: Q07DX002 (ip), vehicle: saline with Tween-80, higher = larger tumour) 61 % of control; (endpoint: median tumor weight (est.), dose: 2.5 mg/kg/injection, schedule: Q07DX002 (ip), vehicle: saline with Tween-80, higher = larger tumour) 71 % of control.

On to `Cn1c(=O)c2ncnnc2n(C)c1=O`, for which the T/C is 75 % of control (endpoint: median tumor weight (est.), dose: 3.12 mg/kg/injection, schedule: Q07DX002 (ip), vehicle: Klucel (hydroxypropylcellulose) (HPC), higher = larger tumour); 84 % of control under setting [8]; 78 % of control (endpoint: median tumor weight (est.), dose: 12.5 mg/kg/injection, schedule: Q07DX002 (ip), vehicle: Klucel (hydroxypropylcellulose) (HPC), higher = larger tumour); 62 % of control (endpoint: median tumor weight (est.), dose: 25.0 mg/kg/injection, schedule: Q07DX002 (ip), vehicle: Klucel (hydroxypropylcellulose) (HPC), higher = larger tumour).

As for `CCCCCCCCCCCC(=O)NC1CC(O[C@H]2C[C@](O)(C(=O)CO)Cc3c(O)c4c(c(O)c32)C(=O)c2c(OC)cccc2C4=O)OC(C)C1O` (stereo not given in full), the T/C was 97 % of control (endpoint: median survival time, dose: 17.0 mg/kg/injection, schedule: Q07DX003 (iv), vehicle: saline, higher = longer survival); 123 % of control (endpoint: median survival time, dose: 43.0 mg/kg/injection, schedule: Q07DX003 (iv), vehicle: saline, higher = longer survival); 103 % of control (endpoint: median survival time, dose: 70.0 mg/kg/injection, schedule: Q07DX003 (iv), vehicle: saline, higher = longer survival); 96 % of control (endpoint: median tumor weight (est.), dose: 28.7 mg/kg/injection, schedule: Q07DX002 (ip), vehicle: distilled water + Tween-80, higher = larger tumour); 101 % of control (endpoint: median tumor weight (est.), dose: 56.3 mg/kg/injection, schedule: Q07DX002 (ip), vehicle: distilled water + Tween-80, higher = larger tumour).

With `CC(=O)Nc1ccc(S(=O)(=O)CO)cc1`, the T/C under setting [2] is 116 % of control and 97 % of control; the T/C under setting [3] is 84 % of control and 107 % of control; the T/C under setting [4] is 89 % of control; the T/C under setting [5] was 88 % of control and 91 % of control; the T/C (endpoint: median tumor weight (est.), dose: 200.0 mg/kg/injection, schedule: Q07DX002 (ip), vehicle: saline with Tween-80, higher = larger tumour) is 89 % of control and 97 % of control.

With `C/C=C1\C[C@@H]2C(OC)Nc3cc(O)c(OC)cc3C(=O)N2C1` (stereo not given in full), the T/C (endpoint: median tumor weight (est.), dose: 0.06 mg/kg/injection, schedule: Q07DX002 (ip), vehicle: saline, higher = larger tumour) is 121 % of control; the T/C (endpoint: median tumor weight (est.), dose: 0.12 mg/kg/injection, schedule: Q07DX002 (ip), vehicle: saline, higher = larger tumour) is 98 % of control; the T/C (endpoint: median tumor weight (est.), dose: 0.12 mg/kg/injection, schedule: Q07DX002 (ip), vehicle: suspension in saline, higher = larger tumour) was 122 % of control; the T/C (endpoint: median tumor weight (est.), dose: 0.25 mg/kg/injection, schedule: Q07DX002 (ip), vehicle: saline, higher = larger tumour) was 102 % of control; the T/C (endpoint: median tumor weight (est.), dose: 0.25 mg/kg/injection, schedule: Q07DX002 (ip), vehicle: suspension in saline, higher = larger tumour) was 108 % of control; the T/C (endpoint: median tumor weight (est.), dose: 0.5 mg/kg/injection, schedule: Q07DX002 (ip), vehicle: saline, higher = larger tumour) is 102 % of control. Moreover, the T/C (endpoint: median tumor weight (est.), dose: 0.5 mg/kg/injection, schedule: Q07DX002 (ip), vehicle: suspension in saline, higher = larger tumour) is 166 % of control; the T/C (endpoint: median tumor weight (est.), dose: 1.0 mg/kg/injection, schedule: Q07DX002 (ip), vehicle: saline, higher = larger tumour) was 105 % of control; the T/C (endpoint: median tumor weight (est.), dose: 1.0 mg/kg/injection, schedule: Q07DX002 (ip), vehicle: suspension in saline, higher = larger tumour) is 84 % of control.

For the compound `Cc1ccc(S(=O)(=O)N/N=C/C(=O)O)cc1`, the T/C (endpoint: median tumor weight (est.), dose: 12.5 mg/kg/injection, schedule: Q07DX002 (ip), vehicle: other, higher = larger tumour) is 116 % of control; the T/C (endpoint: median tumor weight (est.), dose: 25.0 mg/kg/injection, schedule: Q07DX002 (ip), vehicle: other, higher = larger tumour) is 165 % of control; the T/C (endpoint: median tumor weight (est.), dose: 50.0 mg/kg/injection, schedule: Q07DX002 (ip), vehicle: other, higher = larger tumour) was 75 % of control; the T/C (endpoint: median tumor weight (est.), dose: 100.0 mg/kg/injection, schedule: Q07DX002 (ip), vehicle: other, higher = larger tumour) was 90 % of control; the T/C (endpoint: median tumor weight (est.), dose: 200.0 mg/kg/injection, schedule: Q07DX002 (ip), vehicle: other, higher = larger tumour) is 178 % of control.

`C/C=C/C=C/c1cc2cc3c(c(O)c2c(=O)[nH]1)C1(CC3)C(O)=c2c(=O)c3c(=O)cc(OC)c(=O)c=3c(=O)c2=C1O` (stereo not given): the T/C (endpoint: median tumor weight (est.), dose: 0.06 mg/kg/injection, schedule: Q07DX002 (ip), vehicle: DMSO, higher = larger tumour) was 74 % of control and 97 % of control; the T/C (endpoint: median tumor weight (est.), dose: 0.12 mg/kg/injection, schedule: Q07DX002 (ip), vehicle: DMSO, higher = larger tumour) was 115 % of control and 91 % of control; the T/C (endpoint: median tumor weight (est.), dose: 0.15 mg/kg/injection, schedule: Q07DX002 (ip), vehicle: DMSO, higher = larger tumour) was 81 % of control; the T/C (endpoint: median tumor weight (est.), dose: 0.25 mg/kg/injection, schedule: Q07DX002 (ip), vehicle: DMSO, higher = larger tumour) is 57 % of control; the T/C (endpoint: median tumor weight (est.), dose: 0.3 mg/kg/injection, schedule: Q07DX002 (ip), vehicle: DMSO, higher = larger tumour) is 85 % of control; the T/C (endpoint: median tumor weight (est.), dose: 0.5 mg/kg/injection, schedule: Q07DX002 (ip), vehicle: DMSO, higher = larger tumour) is 79 % of control and 93 % of control. The T/C was 87 % of control (endpoint: median tumor weight (est.), dose: 0.61 mg/kg/injection, schedule: Q07DX002 (ip), vehicle: DMSO, higher = larger tumour); 114 % of control and 102 % of control (endpoint: median tumor weight (est.), dose: 1.0 mg/kg/injection, schedule: Q07DX002 (ip), vehicle: DMSO, higher = larger tumour); 81 % of control (endpoint: median tumor weight (est.), dose: 1.22 mg/kg/injection, schedule: Q07DX002 (ip), vehicle: DMSO, higher = larger tumour); 121 % of control (endpoint: median tumor weight (est.), dose: 2.0 mg/kg/injection, schedule: Q07DX002 (ip), vehicle: DMSO, higher = larger tumour).

`CCN=C=NCCCN(C)C`: the T/C by setting is: under setting [6], 118 % of control; (endpoint: median tumor weight (est.), dose: 25.0 mg/kg/injection, schedule: Q07DX002 (ip), vehicle: saline, higher = larger tumour) 103 % of control; under setting [7], 120 % of control; (endpoint: median tumor weight (est.), dose: 100.0 mg/kg/injection, schedule: Q07DX002 (ip), vehicle: saline, higher = larger tumour) 100 % of control.

Take `COc1cccc2c1C(=O)c1c(O)c3c(c(O)c1C2=O)C[C@@](O)(C(C)=O)C[C@@H]3OC1CC(N)C(O)C(C)O1` (stereo not given in full): the T/C reads like this: (endpoint: median tumor weight (est.), dose: 0.5 mg/kg/injection, schedule: Q07DX002 (ip), vehicle: water, higher = larger tumour) 75 % of control; (endpoint: median tumor weight (est.), dose: 0.5 mg/kg/injection, schedule: Q07DX003 (ip), vehicle: saline, higher = larger tumour) 62 % of control and 76 % of control; (endpoint: median tumor weight (est.), dose: 1.0 mg/kg/injection, schedule: Q07DX002 (ip), vehicle: water, higher = larger tumour) 230 % of control; (endpoint: median tumor weight (est.), dose: 1.0 mg/kg/injection, schedule: Q07DX003 (ip), vehicle: saline, higher = larger tumour) 55 % of control and 76 % of control; (endpoint: median tumor weight (est.), dose: 2.0 mg/kg/injection, schedule: Q07DX002 (ip), vehicle: water, higher = larger tumour) 117 % of control; (endpoint: median tumor weight (est.), dose: 2.0 mg/kg/injection, schedule: Q07DX003 (ip), vehicle: saline, higher = larger tumour) 78 % of control and 91 % of control.

With `C[C@@H]1C[C@H]2[C@@H]3CCC4=CC(=O)C=C[C@]4(C)[C@@]3(F)[C@@H](O)C[C@]2(C)[C@@]1(O)C(=O)CO`, the T/C is 156 % of control under setting [8]; 53 % of control and 58 % of control (endpoint: median tumor weight (est.), dose: 200.0 mg/kg/injection, schedule: Q07DX002 (ip), vehicle: Klucel (hydroxypropylcellulose) (HPC), higher = larger tumour); 25 % of control (endpoint: median tumor weight (est.), dose: 400.0 mg/kg/injection, schedule: Q07DX002 (ip), vehicle: Klucel (hydroxypropylcellulose) (HPC), higher = larger tumour).
